This note sets out measurements from patent US20240101570A1 (AMGEN INC., priority 2020, published 2024).

One experiment relates to HCT116 MTAP null cells. Kind of experiment: HCT116 MTAP null cell proliferation / viability (CellTiter-Glo, 6 days). Type of experiment: cell-based. As to conditions: for IC50: HCT116-MTAP null, 144 h, HCT116 MTAP null cells, 6 days, CellTiter-Glo, read-out: HCT-116 MTAP null IC50. The method, boiled down: (§1)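 IC50 values derive from sigmoidal dose-response fits, some with Hill slope fixed at −1 and top constrained to 100%, others from 4-parameter logistic models. They reflect CellTiter-Glo viability after 6 days of compound exposure at up to 10 or 50 μM.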

The next experiment deals with HCT116 WT cells. Put plainly: HCT116 WT cell proliferation / viability (CellTiter-Glo, 6 days). It is filed as cell-based. As to conditions: Homo sapiens, HCT-116, 144 h, HCT116 WT cells, 6 days, CellTiter-Glo; read-out: HCT-116 WT IC50. The method in brief: as §1

`C[C@H]1OCc2c1c(N)nc1ccc(C(=O)N(Cc3ccc(C(F)(F)F)cn3)CC3(C)CC3)cc21` [Example 339, (3R)-4-amino-3-methyl-N-((1-methylcyclopropyl)methyl)-N-((5-(trifluoromethyl)-2-pyridinyl)methyl)-1,3-dihydrofuro[3,4-c]quinoline-8-carboxamide]: the values for the IC50 in the experiment with HCT116 MTAP null cells and in the experiment on HCT116 WT cells were 25 nM and 611 nM, respectively.
The corresponding values for `C[C@@H]1OCc2c1c(N)nc1cnc(C(=O)N(Cc3ccc(C(F)(F)F)cn3)c3cnn(C)c3)cc21` (single isomer, unassigned) [Example 827] are 1250 nM and 47200 nM.
For the molecule `CC(C)N(Cc1ccc(OC(F)(F)F)cn1)C(=O)c1ccc2nc(N)c3c(c2c1)COC3` [Example 678, 4-amino-N-(2-propanyl)-N-((5-(trifluoromethoxy)-2-pyridinyl)methyl)-1,3-dihydrofuro[3,4-c]quinoline-8-carboxamide], the 50% inhibitory concentration (IC50) with HCT116 MTAP null cells came out at 40 nM; in the experiment with HCT116 WT cells, 1180 nM.
In the same order, the values of `CN(Cc1ccc(C(F)(F)F)cn1)C(=O)c1cc2c(cc1F)nc(N)c1cnn(C)c12` [Example 802, 4-amino-7-fluoro-N,1-dimethyl-N-((5-(trifluoromethyl)-2-pyridinyl)methyl)-1H-pyrazolo[4,3-c]quinoline-8-carboxamide] are 21 nM and 1380 nM.
Regarding `CCN(Cc1ccc(C(F)(F)F)cn1)C(=O)c1cc2c(cn1)nc(N)c1c(C)nn(C)c12` [Example 553, 4-amino-N-ethyl-1,3-dimethyl-N-((5-(trifluoromethyl)-2-pyridinyl)methyl)-1H-pyrazolo[4,3-c][1,7]naphthyridine-8-carboxamide], the IC50 with HCT116 MTAP null cells was determined as 247 nM; with HCT116 WT cells it was 12400 nM.
In the case of `C[C@@H](CF)N(Cc1ccc(C#N)cn1)C(=O)c1ccc2nc(N)c3c(c2c1)COC3` (single isomer, unassigned) [Example 578], the IC50 worked out at 338 nM with HCT116 MTAP null cells and 4930 nM with HCT116 WT cells. For the same molecule, the “potency of enantiomer relative to the other enantiomer, measured by IC50 in HCT116 MTAP null cell viability assay” value with HCT116 MTAP null cells (HCT116 MTAP null, comparison of the two SFC-separated enantiomers) is “less potent”.
With `CC(C)N(C(=O)c1ccc2nc(N)c3c(c2c1)CO[C@@H]3C)[C@@H](C)c1ccc(C(F)(F)F)cn1` (single isomer, unassigned) [Example 840], the IC50 with HCT116 MTAP null cells amounted to 638 nM; in the experiment with HCT116 WT cells, 23000 nM.
The corresponding values for `C[C@H](c1ncccn1)N(Cc1ccc(C(F)(F)F)nn1)C(=O)c1ccc2nc(N)c3c(c2c1)CCC3` (single isomer, unassigned) [Example 649] are 14 nM and 181 nM.
On to `CCOc1ccc(CN(C(=O)c2cc3c4c(c(N)nc3cn2)COC4)C23CC(C2)C3)nn1` [Example 378, 4-amino-N-(bicyclo[1.1.1]pentan-1-yl)-N-((6-ethoxy-3-pyridazinyl)methyl)-1,3-dihydrofuro[3,4-c][1,7]naphthyridine-8-carboxamide], for which the IC50 with HCT116 MTAP null cells came to 294 nM; in the experiment on HCT116 WT cells, 9430 nM.
In the case of `CCN(C(=O)c1ccc2nc(N)c3c(c2c1)COC3)[C@@H](C)c1ccc(C#N)cn1` (single isomer, unassigned) [Example 837], the IC50 was 7080 nM in the experiment with HCT116 MTAP null cells and over 50000 nM with HCT116 WT cells.
Regarding `C[C@H]1OCc2c1c(N)nc1ccc(C(=O)N(Cc3ccc(C#N)cn3)CC3CC3)cc21` [Example 331, (3R)-4-amino-N-((5-cyano-2-pyridinyl)methyl)-N-(cyclopropylmethyl)-3-methyl-1,3-dihydrofuro[3,4-c]quinoline-8-carboxamide], the results for the IC50 in the experiment with HCT116 MTAP null cells and with HCT116 WT cells were 28 nM and 2300 nM, respectively.
Regarding `C[C@H](c1ccc(C(F)(F)F)cn1)N(C)C(=O)c1cc2c(cc1F)nc(N)c1cnn(C)c12` (single isomer, unassigned) [Example 602], the IC50 with HCT116 MTAP null cells was 6 nM; in the experiment on HCT116 WT cells, 209 nM.
In the same order, the values of `CCN(C(=O)c1cc2c3c(c(N)nc2cn1)COC3)[C@H](C)c1ccc(C(F)(F)F)cn1` (single isomer, unassigned) [Example 823] are 528 nM and 16200 nM.
With `Nc1nc2cc(F)c(C(=O)N(Cc3ccc(C(F)(F)F)cn3)C3CC3)cc2c2c1cnn2CC(F)(F)F` [Example 570, 4-amino-N-cyclopropyl-7-fluoro-1-(2,2,2-trifluoroethyl)-N-((5-(trifluoromethyl)-2-pyridinyl)methyl)-1H-pyrazolo[4,3-c]quinoline-8-carboxamide], the 50% inhibitory concentration (IC50) in the experiment with HCT116 MTAP null cells was 757 nM; with HCT116 WT cells, 329 nM.
In the same order, the values of `CN(Cc1ccc(S(F)(F)(F)(F)F)cc1)C(=O)c1cc2c3c(c(N)nc2cc1F)COC3` [Example 512, 4-amino-7-fluoro-N-methyl-N-(4-(pentafluoro-lambda~6~- sulfanyl)benzyl)-1,3-dihydrofuro[3,4-c]quinoline-8-carboxamide] are 38 nM and 1380 nM.
The corresponding values for `CCN(Cc1ccc(C(F)(F)F)cn1)C(=O)c1cc2c(cn1)nc(N)c1cnn(C)c12` [Example 549, 4-amino-N-ethyl-1-methyl-N-((5-(trifluoromethyl)-2-pyridinyl)methyl)-1H-pyrazolo[4,3-c][1,7]naphthyridine-8-carboxamide] are 20 nM and 487 nM.
In the same order, the values of `Cn1cc(N(Cc2ccc(C(F)(F)F)cn2)C(=O)c2cc3c(cc2F)nc(N)c2cnn(C)c23)cn1` [Example 740, 4-amino-7-fluoro-1-methyl-N-(1-methyl-1H-pyrazol-4-yl)-N-((5-(trifluoromethyl)-2-pyridinyl)methyl)-1H-pyrazolo[4,3-c]quinoline-8-carboxamide] are 5 nM and 100 nM.
For `CCN(C(=O)c1ccc2nc(N)c3c(c2c1)COC3)[C@H](C)c1ccc(C(F)(F)F)cc1F` [Example 742, 4-amino-N-ethyl-N-((1R)-1-(2-fluoro-4-(trifluoromethyl)phenyl)ethyl)-1,3-dihydrofuro[3,4-c]quinoline-8-carboxamide], the IC50 in the experiment on HCT116 MTAP null cells was determined as 66 nM; with HCT116 WT cells, 2500 nM.
The corresponding values for `CN(Cc1ccc(C(F)(F)F)cn1)C(=O)c1cc2c3c(c(N)nc2cn1)COC3` [Example 344, 4-amino-N-methyl-N-((5-(trifluoromethyl)-2-pyridinyl)methyl)-1,3-dihydrofuro[3,4-c][1,7]naphthyridine-8-carboxamide] are 244 nM and over 10000 nM.
The corresponding values for `C[C@@H](c1ncccn1)N(Cc1ccc(C#N)cn1)C(=O)c1ccc2nc(N)c3c(c2c1)COC3` [Example 666, 4-amino-N-((5-cyano-2-pyridinyl)methyl)-N-((1S)-1-(2-pyrimidinyl)ethyl)-1,3-dihydrofuro[3,4-c]quinoline-8-carboxamide] are 687 nM and over 10000 nM.
In the same order, the values of `Cn1cc(N(Cc2ccc(C(F)F)cn2)C(=O)c2cc3c4c(c(N)nc3cn2)CCC4)cn1` [Example 493, 6-amino-N-((5-(difluoromethyl)-2-pyridinyl)methyl)-N-(1-methyl-1H-pyrazol-4-yl)-8,9-dihydro-7H-cyclopenta[c][1,7]naphthyridine-2-carboxamide] are 124 nM and 1160 nM.
Turning to `CC(C)CN(Cc1ccc(C(F)(F)F)nn1)C(=O)c1ccc2nc(N)c3c(c2c1)COC3` [Example 664, 4-amino-N-(2-methylpropyl)-N-((6-(trifluoromethyl)-3-pyridazinyl)methyl)-1,3-dihydrofuro[3,4-c]quinoline-8-carboxamide], the IC50 in the experiment on HCT116 MTAP null cells amounted to 38 nM; with HCT116 WT cells, 1390 nM.
